From ChEMBL document CHEMBL2086371, “4-quinolones as noncovalent inhibitors of high molecular mass penicillin-binding proteins” (ACS Med Chem Lett, 2012) come the findings set out here.

pKi: −log10 of the molar value. Active and inactive are the calls of the source. The calls are words filed in the database; no cut-off is given here.

Assay [1] is described as follows: Inhibition of bocillin FL binding to PBP 1a/1b in Escherichia coli MM 294 membrane preparation by gel electrophoresis. The assay is classed as cell membranes.
Assay [2] in a line: Inhibition of bocillin FL binding to PBP 2 in Escherichia coli MM 294 membrane preparation by gel electrophoresis. The format is cell membranes.
Assay [3] is described as follows: Inhibition of bocillin FL binding to PBP 3 in Escherichia coli MM 294 membrane preparation by gel electrophoresis. The format is cell membranes.
A short description of assay [4]: Inhibition of bocillin FL binding to PBP 4 in Escherichia coli MM 294 membrane preparation by gel electrophoresis. The assay is classed as cell membranes.
Assay [5] has as its system Escherichia coli. Description: Inhibition of bocillin FL binding to PBP 5/6 in Escherichia coli MM 294 membrane preparation at 1 mM by gel electrophoresis. The assay is classed as cell membranes.
Assay [6] deals with Escherichia coli. Description: Antibacterial activity against Escherichia coli MM 294 after 20 hrs by tube dilution method. The assay is classed as functional. Conditions: MM 294, 20 h.
For assay [7], the system named is Escherichia coli. The experiment in a line: Inhibition of bocillin FL binding to Escherichia coli MM 294 PBP by whole-cell assay.
The subject of assay [8] is Bacillus subtilis. Description: Inhibition of bocillin FL binding to Bacillus subtilis PBP1 at 1 mM by gel electrophoresis.
The test system of assay [9] is Bacillus subtilis. Description: Inhibition of bocillin FL binding to Bacillus subtilis PBP2 at 1 mM by gel electrophoresis.
Assay [10] concerns Bacillus subtilis. The experiment in a line: Inhibition of bocillin FL binding to Bacillus subtilis PBP3/4 at 1 mM by gel electrophoresis.
Assay [11] has as its system Bacillus subtilis. The experiment in a line: Inhibition of bocillin FL binding to Bacillus subtilis PBP5 at 1 mM by gel electrophoresis.
The test system of assay [12] is Bacillus subtilis. The experiment in a line: Antibacterial activity against Bacillus subtilis after 20 hrs by tube dilution method. The assay is classed as functional, organism-based.
The test system of assay [13] is Escherichia coli. Description: Inhibition of bocillin FL binding to PBP 1a/1b in Escherichia coli MM 294 membrane preparation at 1 mM by gel electrophoresis. The format is cell membranes.
Assay [14] concerns Escherichia coli. The experiment in a line: Inhibition of bocillin FL binding to PBP 2 in Escherichia coli MM 294 membrane preparation at 1 mM by gel electrophoresis. The format is cell membranes.
For assay [15], the system named is Escherichia coli. Description: Inhibition of bocillin FL binding to PBP 3 in Escherichia coli MM 294 membrane preparation at 1 mM by gel electrophoresis. The format is cell membranes.
In assay [16] the test system is Escherichia coli. Description: Inhibition of bocillin FL binding to PBP 4 in Escherichia coli MM 294 membrane preparation at 1 mM by gel electrophoresis. The assay is classed as cell membranes.
Assay [17] in a line: Inhibition of bocillin FL binding to PBP 5/6 in Escherichia coli MM 294 membrane preparation by gel electrophoresis. The assay is classed as cell membranes.
Assay [18] in a line: Inhibition of bocillin FL binding to Escherichia coli MM 294 PBP2 by cell-free assay.
Assay [19] concerns Escherichia coli. Description: Inhibition of bocillin FL binding to Escherichia coli MM 294 PBP 5/6 by cell-free assay.

Consider `O=c1cc(CCCO)[nH]c2ccccc12`, for which the negative logarithm of the Ki (pKi) was 4.31 in assay [1], 4.30 in assay [2], 3.92 in [3] and 5.21 in [4]. Moreover, the inhibition entry with Escherichia coli [5] and in the assay on Escherichia coli [7] was “inactive” throughout. In the assay on Escherichia coli [6], this molecule returned a minimum inhibitory concentration (MIC) above 1000 µM. In addition, the inhibition result with Bacillus subtilis [8], in the assay on Bacillus subtilis [9], with Bacillus subtilis [10] and with Bacillus subtilis [11] was “Active” throughout. Further, the outcome with Bacillus subtilis [12] was inactive.
Consider `O=c1c(CCO)c[nH]c2ccccc12`, for which the negative-log Ki (pKi) in [1] was 4.42; in assay [2], 4.57; in [3], 4.15; in assay [4] it was 5.51. In addition, the inhibition entry with Escherichia coli [5] and with Escherichia coli [7] was “inactive” each time. Further, in the assay with Escherichia coli [6], the MIC is above 1000 µM. Besides, the inhibition result in the assay with Bacillus subtilis [8], in the assay on Bacillus subtilis [9], with Bacillus subtilis [10] and in the assay on Bacillus subtilis [11] was “Active” throughout. The result in the assay with Bacillus subtilis [12] was inactive.
Turning to `Oc1cccc2nccc(O)c12`, the inhibition entry with Escherichia coli [13], in the assay with Escherichia coli [14], with Escherichia coli [15], in the assay on Escherichia coli [16], with Escherichia coli [5] and in the assay with Escherichia coli [7] was “inactive” throughout. The molecule further registered a minimal inhibitory concentration (MIC) in the assay with Escherichia coli [6] above 1000 µM. The inhibition entry with Bacillus subtilis [8], in the assay with Bacillus subtilis [9], in the assay with Bacillus subtilis [10] and in the assay with Bacillus subtilis [11] was “Active” in each case. Moreover, the result in the assay on Bacillus subtilis [12] was inactive.
For the molecule `O=C(O)c1cc(=O)c2ccccc2[nH]1` [TRANSTORINE], the pKi in assay [1] was 3.33; in assay [2], 3.68; in assay [3] it was 3.02; in [4] it was 4.43. In addition, the inhibition result in the assay with Escherichia coli [5] and in the assay with Escherichia coli [7] was “inactive” throughout. For the same molecule, in the assay with Escherichia coli [6], the minimum inhibitory concentration (MIC) was above 1000 µM. Also, the inhibition entry in the assay with Bacillus subtilis [8], in the assay with Bacillus subtilis [9], in the assay with Bacillus subtilis [10] and in the assay with Bacillus subtilis [11] was “Active” in each case. Besides, the outcome in the assay on Bacillus subtilis [12] was inactive.
As to `O=c1cc[nH]c2cc(O)ccc12`, the pKi in [1] was 3.29; in assay [2], 4.05; in assay [4], 4.26. In addition, the inhibition result with Escherichia coli [15], with Escherichia coli [5] and with Escherichia coli [7] was “inactive” each time. In the assay on Escherichia coli [6], this molecule had an MIC above 1000 µM. Besides, the inhibition result in the assay on Bacillus subtilis [8], in the assay with Bacillus subtilis [9], with Bacillus subtilis [10] and in the assay with Bacillus subtilis [11] was “Active” throughout. Moreover, the result in the assay on Bacillus subtilis [12] was inactive.
With `O=C(O)Cc1c[nH]c2ccccc2c1=O`, the figures for the negative-log Ki (pKi) in assay [1], in assay [2] and in assay [4] were 3.52, 3.60 and 4.54, respectively. Besides, the inhibition result with Escherichia coli [15], in the assay on Escherichia coli [5] and in the assay on Escherichia coli [7] was “inactive” throughout. Further, the MIC in the assay on Escherichia coli [6] was above 1000 µM. Further, the inhibition entry in the assay on Bacillus subtilis [8], in the assay on Bacillus subtilis [9], with Bacillus subtilis [10] and with Bacillus subtilis [11] was “Active” in each case. For the same molecule, the result with Bacillus subtilis [12] was inactive.
On to `O=c1cc(CCO)[nH]c2ccccc12`, for which the pKi in assay [1] was 4.43; in assay [2], 4.59; in assay [3], 3.92; in [4] it was 5.15; in assay [17], 3.28. This molecule gave a minimum inhibitory concentration (MIC) with Escherichia coli [6] above 1000 µM. Moreover, the inhibition result with Escherichia coli [7] is “inactive”. Further, the inhibition entry in the assay on Bacillus subtilis [8], in the assay on Bacillus subtilis [9], with Bacillus subtilis [10] and in the assay with Bacillus subtilis [11] was “Active” throughout. For the same molecule, in the assay with Bacillus subtilis [12], the result was inactive.
On to `Oc1ccnc2ccccc12`, for which the inhibition entry in the assay on Escherichia coli [13], in the assay with Escherichia coli [14], in the assay on Escherichia coli [15], in the assay on Escherichia coli [16] and in the assay on Escherichia coli [5] was “inactive” each time.
For `O=c1cc(CO)[nH]c2ccccc12`, the pKi in assay [1] was 4.57; in assay [2], 4.59; in assay [3], 4.57; in assay [4], 5.32; in assay [17] it was 3.66; in assay [18] it was 4.19. The inhibition entry in the assay with Escherichia coli [19] and in the assay on Escherichia coli [7] was “inactive” each time. Besides, in the assay on Escherichia coli [6], the minimal inhibitory concentration (MIC) was above 1000 µM. The inhibition entry in the assay with Bacillus subtilis [8], with Bacillus subtilis [9], with Bacillus subtilis [10] and with Bacillus subtilis [11] was “Active” in each case. In addition, the outcome in the assay with Bacillus subtilis [12] was inactive.

In general, pKi refers to −log10 of the Ki, conventionally taken in molar units. One may read the MIC as the least concentration at which growth counts as inhibited. Higher therefore signals a less susceptible organism.
